Measured values reported in paper PMC11912471 (Journal of Medicinal Chemistry, 2025).
Several values for one entry are separate records, joined by “and”; a condition that tells them apart may be missing. Equal entries are not always repeated. Structures can show the parent of a compound that is named as a salt.

Experiments:
[1] = system: Kelly neuroblastoma cells; test: Sulforhodamine B (SRB) cytotoxicity assay, Kelly neuroblastoma cells; type: cell-based; conditions: for activity against Kelly neuroblastoma cells (in words): 72 h; for activity against Kelly neuroblastoma cells (in words) / Cell cytotoxicity (72 hr @ 500 μM) Kelly Neuroblastoma: 500 μM; for Cell cytotoxicity (72 hr @ 500 μM) Kelly Neuroblastoma: percent cytotoxicity; for cytotoxicity at 500 µM: Kelly, 72 hrs @500 µM, supplement csv, read-out: Kelly Neuroblasoma Cells (72 hrs @500 µM) %cytotoxicity
Method: (§1) Our strategy to identify novel ODC inhibitors was to first screen new analogs for ODC inhibition at 50 μM using our in vitro enzyme activity assay and purified human ODC (Table 1). Those showing significant inhibition were then titrated to provide an ODC IC50 followed by cell-based screening against both cancer (Kelly neuroblastoma) and noncancerous (neonatal fibroblasts) cell lines. For the cancer cell line, higher cytotoxicity was desired and for the noncancerous cell line counter screen, lower cytotoxicity was desired.
(§2) Normal primary human neonatal fibroblast cells (ATCC) were maintained in DMEM medium (Gibco) supplemented with 10% heat-inactivated fetal bovine serum (Hyclone), penicillin (100 IU/mL), and streptomycin (100 μg/mL), nonessential amino acids (0.1 mM) and sodium pyruvate (1 mM). Kelly neuroblastoma cells (Sigma-Aldrich) were maintained in RPMI medium (Corning) supplemented with 10% heat-inactivated fetal bovine serum (Hyclone), penicillin (100 IU/mL), and streptomycin (100 μg/mL). Cell lines were routinely monitored for mycoplasma contamination using the MycoAlert PLUS Mycoplasma Detection Kit (Lonza).
(§3) The colorimetric sulforhodamine B (SRB) assay was used to measure cytotoxicity following treatment with ODC inhibitors. Briefly, Kelly neuroblastoma cells and normal primary human neonatal fibroblast cells were plated in transparent flat 96-well plates and allowed to attach overnight. Cells were treated with control or 500 μM ODC inhibitor for 72 h. Cells were then fixed with 10% TCA at 4 °C for 1 h, washed with deionized water, and dried at room temperature. Cells were stained with 100 μL of 0.4% SRB in 1% acetic acid for 20 min at room temperature, rinsed five times with 1% acetic acid and allowed to dry at room temperature. One hundred μL of 10 mM Tris–HCl pH 7.0 was added to each well, shaken for 10 min at room temperature and absorbance was read at 540 nm. Absorbance values were normalized relative to control readings and converted to percentage by multiplying by one hundred. The percent cytotoxicity was then determined by subtracting the relative percentage of the ODC inhibitor treated readings from the control which is 100%.

[2] = target: T1, purified human ODC enzyme (Homo sapiens, UniProt P11926); test: In vitro ODC enzyme activity assay; type: biochemical; conditions: for inhibition at 50 µM: read-out: ODC biochemical inhibition % (50 μM); for IC50: read-out: ODC biochemical inhibition IC50; for lower activity relative to racemic 7: ratio of ODC IC50s
T1 construct: His6 (C); made in house; host or cells: E. coli BL21(DE3)
T1 sequence (P11926 1-461): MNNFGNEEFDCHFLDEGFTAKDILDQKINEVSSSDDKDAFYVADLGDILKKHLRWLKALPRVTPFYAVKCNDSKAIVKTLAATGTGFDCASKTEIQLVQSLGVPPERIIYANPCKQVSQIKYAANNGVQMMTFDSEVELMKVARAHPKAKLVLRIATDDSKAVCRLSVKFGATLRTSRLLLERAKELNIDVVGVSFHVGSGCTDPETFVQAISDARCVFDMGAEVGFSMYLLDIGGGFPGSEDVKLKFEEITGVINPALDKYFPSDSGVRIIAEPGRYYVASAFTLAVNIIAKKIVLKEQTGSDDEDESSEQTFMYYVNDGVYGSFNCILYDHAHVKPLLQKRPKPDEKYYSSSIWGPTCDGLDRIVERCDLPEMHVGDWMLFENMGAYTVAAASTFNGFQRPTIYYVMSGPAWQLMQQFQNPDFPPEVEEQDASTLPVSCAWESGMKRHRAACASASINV
Method: as §1
In vitro ODC activity was measured using 100 ng of purified human ODC enzyme, as we previously described.[53],[99] ODC was incubated with increasing concentrations of inhibitors for 30 min at room temperature in a buffer containing 25 mM Tris and 0.1 mM EDTA. […] In the cell-based ODC activity assay, Kelly neuroblastoma cells that were treated with 500 μM inhibitors were harvested in a buffer containing 25 mM Tris HCl, 0.1 mM EDTA, and 2.5 mM DTT. […] For both the in vitro and cell-based assay, the microcentrifuge tubes were then placed into scintillation vials containing a piece of filter paper saturated with 200 μL of 0.1 M NaOH to capture the release of radiolabeled carbon dioxide. The samples were incubated in a 37 °C incubator while shaking for 30 min (in vitro) or 2 h (cell-based). The enzymatic reaction was stopped by adding 250 μL of 5 M sulfuric acid to each sample and incubating at 37 °C while shaking for 30 min. The microcentrifuge tubes were removed from the scintillation vials, and 5 mL of scintillation fluid was added. Disintegrations per minute (DPM) of each sample was measured using a TriCarb liquid scintillation counter (PerkinElmer). The specific ODC activity is expressed as nmol CO2/min/mg protein (in vitro) or pmol CO2/min/mg protein (cell-based). The individual ODC inhibitor IC50 values were determined using Graphpad Prism 8.

[3] = system: normal primary human neonatal fibroblast cells; test: Sulforhodamine B (SRB) cytotoxicity assay, neonatal fibroblasts; type: cell-based; conditions: 500 μM; for cytotoxic activity against neonatal fibroblasts (in words): 72 h; for Cell cytotoxicity (72 hr @ 500 μM) Neonatal Fibroblasts: percent cytotoxicity
Method: as §1, §2, §3

[4] = as above; type: cell-based, human; conditions: human, normal primary neonatal fibroblast cells; 72 hrs @500 µM; supplement csv
Method: as §1, §2, §3

[5] = cited from earlier work
ODC = conditions: even at high (>500 μM) concentrations; no reference given; cited from earlier work

LE ([2]; ligand efficiency)	inhibition at 50 µM [2] [%]	IC50 [2]	LE ([2]; supplement csv)	relative activity of S-enantiomer over R-enantiomer ([2]; 10-S-PLP vs 10-R-PLP, ODC IC50) [fold]	ODC inhibitory activity (in words) [2]	lower activity relative to racemic 7 [2] [x]	Compound	activity against Kelly neuroblastoma cells (in words) [1]	Cell cytotoxicity (72 hr @ 500 μM) Kelly Neuroblastoma [1] [%]	cytotoxic activity against neonatal fibroblasts (in words) [3]	Cell cytotoxicity (72 hr @ 500 μM) Neonatal Fibroblasts [3] [%]	cytotoxicity at 72 h, 500 µM [4] [%]	cytotoxicity at 500 µM [1] [%]	pKa of amino group ([5]; ornithine α-amino group, putrescine nitrogen)	pKa printed in Figure 1 ([5]; ornithine α-amino, putrescine)	inhibition of ODC (in words) (ODC)
0.41	96	160 nM	0,41				Cc1ncc(COP(=O)(O)O)c(/C=N/OC[C@@H]2CCNC2)c1O [10-R-PLP]	disappointing neuroblastoma cellular activities	52±6	generally more toxic	36±17	36				
0.47	93	30 nM	0,47	8			Cc1ncc(COP(=O)(O)O)c(/C=N/OC[C@H]2CCNC2)c1O [10-S-PLP, ({5-hydroxy-6-methyl-4-[(E)-({[(3S)-pyrrolidin-3-yl]methoxy}imino)methyl]pyridin-3-yl}methoxy)phosphonic acid]	disappointing neuroblastoma cellular activities	11±4	generally more toxic	40±61	40				
0.41	92	90 nM	0,41				Cc1ncc(COP(=O)(O)O)c(/C=N/OCC2(F)CCNC2)c1O (centres unmarked) [11-PLP, ({4-[(E)-{[(3-fluoropyrrolidin-3-yl)methoxy]imino}methyl]-5-hydroxy-6-methylpyridin-3-yl}methoxy)phosphonic acid]	disappointing neuroblastoma cellular activities	9±13	generally more toxic	57±20	57				
0.45	99	150 nM	0,45				Cc1ncc(COP(=O)(O)O)c(/C=N/OCCCN)c1O [APA-PLP, ({4-[(E)-[(3-Aminopropoxy)imino]methyl]-5-hydroxy-6-methylpyridin-3-yl}methoxy)phosphonic Acid]	disappointing neuroblastoma cellular activities	24±9	generally more toxic	12±19	12				
	3				no ODC activity		NOCCC1CCCCN1 (centres unmarked) [Compound 6]									
	99	~180 nM and 180 nM					NOCC1CCCNC1 (centres unmarked) [Compound 7, 3-[(Aminooxy)methyl]piperidine Dihydrochloride]		54±9	reduced cytotoxic activity	3±6	3	54			
	99	770 nM				~4	NOC[C@@H]1CCCNC1 [Compound 7-R]		49±5	reduced cytotoxic activity	0±14	0	49			
	99	700 nM				~4	NOC[C@H]1CCCNC1 [Compound 7-S]		65±6	reduced cytotoxic activity	0±15	0	65			
	95	780 nM					NOCC1CNCCO1 (centres unmarked) [Compound 8]		37±11	reduced cytotoxic activity	0±11	0	37			
	0				no inhibitory activity		NOC1CCNCC1 [Compound 9]									
	99	210 nM					NOC[C@@H]1CCNC1 [Compound 10-R]		73±12	reduced cytotoxic activity	16±13	16	73			
	99	100 nM					NOC[C@H]1CCNC1 [Compound 10-S]		52±18	reduced cytotoxic activity	9±8	9	52			
	99	360 nM					NOCC1CCNC1 (centres unmarked) [Compound 10]		66±8	reduced cytotoxic activity	14±10	14	66			
							NCCCCN [putrescine]							~10.5	~ 10	not an inhibitor
